Reference: patent US7053100B2, “Therapeutic nucleosides” (priority 1991, dated 2006)
Several values for one entry are separate records, joined by “and”; a condition that tells them apart may be missing. Equal entries are not always repeated.

Test system: Hepatitis B Virus (HBV) in human HBV producer cell line of HepG2, 2.2.15
Details: 100 μM compound, 2.2.15 cells
Method: Antiviral Activity Against Hepatitis B Virus (HBV)
The human HBV producer cell line of HepG2, 2.2.15, described and characterized by Sells et al., PNAS 84:1005, 1987 and J. Virol. […] This cell line was utilized in vitro to identify compounds with anti-HBV activity.
Supernatant media containing extracellular virion DNA (Dane particles) were harvested on days three, six and ten, treated with proteinase K (1 mg/mL) and sodium dodecyl sulfate (1%), and incubated at 50° C. for one hour. DNA was extracted with equal volumes of phenol followed by chloroform and then precipitated by ammonium acetate and propanol. The DNA precipitate was dissolved and collected on nitrocellulose using the procedure of Schleicher and Schuell (S & S, 10 Optical Ave., Keene, N.H. 03431, Publication No. 700, 1987), and treated as described by Southern, J. Mol. Biol. 98:503, 1975. Cells were harvested, and the intracellular DNA was obtained after cell lysis with guanidine isothiocyanate. The intracellular DNA was handled in the same manner as the extracellular DNA. After precipitation by ammonium acetate and propanol, the intracellular DNA precipitate was dissolved, cut by restriction endonuclease, Hind III, applied to agarose gel and then treated as described by Southern to determine the quantity of replicative intermediate forms.

[1] = analysis 24 hours following the 10th day of treatment, duplicate cultures, experiments A and B

Question: Which “HBV DNA in Culture Medium, Day 0” value (Day 0, zero = undetectable, sensitivity cutoff 0.1 pg/mL) does the source give for Nc1nc(=O)n([C@@H]2CS[C@H](CO)O2)cc1F (racemic) [cis-1-(2-(Hydroxymethyl)-1,3-oxathiolan-5-yl)-5-fluoro-cytosine] here?
Answer: 90 pg/mL

Question: And the “HBV DNA in Culture Medium, Day 10” value (Day 10, zero = undetectable, sensitivity cutoff 0.1 pg/mL)?
Answer: 0 pg/mL

Question: And the “Intracellular HBV DNA, Monomer” value [1]?
Answer: 0.8 pg/μg cell DNA and 0.7 pg/μg cell DNA

Question: And the “Intracellular HBV DNA, Replicative intermediate” value [1]?
Answer: 1 pg/μg cell DNA and 2 pg/μg cell DNA
